What all share (format): functional
The subject of one assay is Enterococcus faecium. Briefly: Minimum inhibitory concentration against vancomycin resistant Enterococcus faecium (VRE).
For assay [1], the system named is Staphylococcus aureus. Briefly: Minimum inhibitory concentration against methicillin resistant staphylococcus aureus (MRSA).
Assay [2] relates to Staphylococcus aureus. Put plainly: The compound was evaluated in vitro for minimum inhibitory concentration against staphylococcus aureus HP-5827.
Assay [3] deals with Staphylococcus aureus. Briefly: The compound was evaluated in vitro for minimum inhibitory concentration against staphylococcus aureus HP-5836.

Values after ≈ are worked out from the molar mass of the structure shown.

In the case of `Clc1ccc2ccc(-c3c[nH]c4ccc(Br)cc34)nc2c1`, the MIC against Enterococcus faecium is more than 25 µg/mL; against Staphylococcus aureus [1] it was 0.6 µg/mL (≈ 1.68 µM).

As to `NCCNC(=O)c1cc(-c2c[nH]c3ccc(Br)cc23)nc2ccc(Cl)cc12.O=C(O)C(F)(F)F`, the figures for the MIC in the assay on Enterococcus faecium and in the assay on Staphylococcus aureus [1] were 3.13 µg/mL and 1.56 µg/mL, respectively.

On to `Clc1ccc2c(Cl)cc(-c3c[nH]c4ccc(Br)cc34)nc2c1`, for which the minimal inhibitory concentration (MIC) is 3.13 µg/mL (≈ 7.98 µM) against Enterococcus faecium and less than 0.39 µg/mL with Staphylococcus aureus [1].

As to `Clc1ccc2nc(-c3c[nH]c4ccccc34)ccc2c1`, the values for the MIC against Enterococcus faecium and in the assay on Staphylococcus aureus [1] were more than 25 µg/mL and 5 µg/mL (≈ 17.9 µM), respectively.

For `Oc1ccc2[nH]cc(-c3ccc4cc(Cl)ccc4n3)c2c1`, the MIC in the assay with Enterococcus faecium is more than 25 µg/mL; against Staphylococcus aureus [1], 12.5 µg/mL (≈ 42.4 µM).

Turning to `Clc1ccc2nc(-c3c[nH]c4c(Cl)cccc34)ccc2c1`, the MIC with Enterococcus faecium and against Staphylococcus aureus [1] was more than 25 µg/mL in each case.

In the case of `OCc1cc(-c2c[nH]c3ccc(Br)cc23)nc2cc(Cl)ccc12`, the figures for the MIC with Enterococcus faecium and in the assay on Staphylococcus aureus [1] were 2.5 µg/mL (≈ 6.45 µM) and 0.31 µg/mL (≈ 0.8 µM), respectively.

As to `Clc1ccc2nc(-c3c[nH]c4ccc(Cl)cc34)ccc2c1`, the results for the minimum inhibitory concentration (MIC) in the assay with Enterococcus faecium and with Staphylococcus aureus [1] were more than 25 µg/mL and 0.78 µg/mL (≈ 2.49 µM), respectively.

Take `NCCNC(=O)c1cc(-c2c[nH]c3ccc(Br)cc23)nc2c(Cl)cccc12.O=C(O)C(F)(F)F`: the minimum inhibitory concentration (MIC) was determined as 3.13 µg/mL in the assay on Enterococcus faecium and 1.56 µg/mL with Staphylococcus aureus [1].

In the case of `O=C(Oc1ccc2[nH]cc(-c3ccc4cc(Cl)ccc4n3)c2c1)c1ccccc1`, the MIC in the assay on Enterococcus faecium was more than 25 µg/mL; with Staphylococcus aureus [1] it was 1.56 µg/mL (≈ 3.91 µM).

`NCCNC(=O)c1cc(-c2c[nH]c3ccc(Br)cc23)nc2cc(Cl)cc(Cl)c12.O=C(O)C(F)(F)F`: the minimal inhibitory concentration (MIC) stood at 1.56 µg/mL with Enterococcus faecium and 0.78 µg/mL with Staphylococcus aureus [1].

With `NCCNC(=O)c1cc(-c2c[nH]c3ccc(Br)cc23)nc2cc(Cl)c(C#CCN3CCCCC3)cc12.O=C(O)C(F)(F)F`, the minimal inhibitory concentration (MIC) against Enterococcus faecium worked out at 6.25 µg/mL; in the assay with Staphylococcus aureus [1] it was 3.13 µg/mL; in the assay on Staphylococcus aureus [2], 1.56 µg/mL; with Staphylococcus aureus [3], 3.13 µg/mL.

Turning to `NCc1cc(-c2c[nH]c3ccc(Br)cc23)nc2cc(Cl)ccc12.O=C(O)C(F)(F)F`, the minimum inhibitory concentration (MIC) in the assay with Enterococcus faecium turned out to be 1.56 µg/mL; with Staphylococcus aureus [1] it was 0.78 µg/mL; against Staphylococcus aureus [2] it was 0.39 µg/mL; against Staphylococcus aureus [3], 0.39 µg/mL.

In turn, `NCCNC(=O)c1cc(-c2c[nH]c3ccc(Br)cc23)nc2cc3c(cc12)OCO3.O=C(O)C(F)(F)F` yielded an MIC against Staphylococcus aureus [1] of 12.5 µg/mL.

On to `Clc1ccc2nc(-c3c[nH]c4ccc(Br)cc34)ccc2c1`, for which the MIC in the assay on Enterococcus faecium is more than 25 µg/mL; against Staphylococcus aureus [1], 0.62 µg/mL (≈ 1.73 µM).

As to `COc1ccc2[nH]cc(-c3ccc4cc(Cl)ccc4n3)c2c1`, the minimum inhibitory concentration (MIC) against Enterococcus faecium and in the assay on Staphylococcus aureus [1] was more than 25 µg/mL each time.

On to `NCCNC(=O)c1cc(-c2c[nH]c3ccc(Br)cc23)nc2ccccc12.O=C(O)C(F)(F)F`, for which the values for the minimum inhibitory concentration (MIC) in the assay on Enterococcus faecium and in the assay on Staphylococcus aureus [1] were 25 µg/mL and 12.5 µg/mL, respectively.

Regarding `NCCNC(=O)c1cc(-c2c[nH]c3ccc(Br)cc23)nc2c(Cl)c(Cl)ccc12.O=C(O)C(F)(F)F`, the MIC with Enterococcus faecium and in the assay on Staphylococcus aureus [1] was 0.78 µg/mL throughout.

On to `Fc1ccc2[nH]cc(-c3ccc4cc(Cl)ccc4n3)c2c1`, for which the MIC against Enterococcus faecium is 12.5 µg/mL (≈ 42.1 µM); against Staphylococcus aureus [1] it was 0.78 µg/mL (≈ 2.63 µM).

With `Fc1ccc2c(-c3ccc4cc(Cl)ccc4n3)c[nH]c2c1`, the minimal inhibitory concentration (MIC) was 6.25 µg/mL (≈ 21.1 µM) against Enterococcus faecium and 1.56 µg/mL (≈ 5.26 µM) in the assay with Staphylococcus aureus [1].

`NCCNC(=O)c1cc(-c2c[nH]c3ccc(Br)cc23)nc2cc(Cl)ccc12.O=C(O)C(F)(F)F`: the MIC amounted to 1.56 µg/mL in the assay with Enterococcus faecium, 0.78 µg/mL in the assay with Staphylococcus aureus [1], 0.78 µg/mL against Staphylococcus aureus [2] and 0.39 µg/mL with Staphylococcus aureus [3].

Take `O=C(O)c1cc(-c2c[nH]c3ccc(Br)cc23)nc2cc(Cl)ccc12`: the minimal inhibitory concentration (MIC) with Enterococcus faecium and in the assay with Staphylococcus aureus [1] was 25 µg/mL (≈ 62.2 µM) each time.

In the case of `N#Cc1ccc2[nH]cc(-c3ccc4cc(Cl)ccc4n3)c2c1`, the MIC against Enterococcus faecium and against Staphylococcus aureus [1] was more than 25 µg/mL in each case.

Turning to `NCCNC(=O)c1cc(-c2c[nH]c3ccc(Br)cc23)nc2c(F)cccc12.O=C(O)C(F)(F)F`, the results for the minimum inhibitory concentration (MIC) in the assay on Enterococcus faecium and in the assay on Staphylococcus aureus [1] were 12.5 µg/mL and 6.25 µg/mL, respectively.

For the compound `NCCNC(=O)c1cc(-c2c[nH]c3ccc(Br)cc23)nc2cc(F)ccc12.O=C(O)C(F)(F)F`, the MIC in the assay with Enterococcus faecium and in the assay on Staphylococcus aureus [1] was 3.13 µg/mL in each case.

As to `Fc1cccc2[nH]cc(-c3ccc4cc(Cl)ccc4n3)c12`, the MIC in the assay on Enterococcus faecium and in the assay on Staphylococcus aureus [1] was more than 25 µg/mL each time.

As usually defined, the MIC is the lowest concentration found to suppress growth. Read a low MIC as a more susceptible organism.

Source of the values: ChEMBL document CHEMBL1133071, “Potent in vitro methicillin-resistant Staphylococcus aureus activity of 2-(1H-indol-3-yl)quinoline derivatives” (2000).
